Calls of active or inactive are those of the source. How the calls were made is not given here.

The data set concerns CCRIS mutagenicity, Ames/micronucleus/aberration tests. Briefly: CCRIS mutagenicity studies.
Where [1] appears, read: Test System: AMES SALMONELLA TYPHIMURIUM, Strain/Indicator: TA98, Metabolic Activation: NONE, Method: PREINCUBATION
[2] abbreviates: Test System: AMES SALMONELLA TYPHIMURIUM, Strain/Indicator: TA100, Metabolic Activation: NONE, Method: PREINCUBATION

In the case of `CCCC(c1cc(C(C)(C)C)c(O)cc1C)c1cc(C(C)(C)C)c(O)cc1C`, the mutagenic call is, setting by setting: (Test System: AMES SALMONELLA TYPHIMURIUM, Strain/Indicator: TA98, Metabolic Activation: NONE, Method: STANDARD PLATE) “inactive; negative”; (Test System: AMES SALMONELLA TYPHIMURIUM, Strain/Indicator: TA98, Metabolic Activation: S-9, Method: STANDARD PLATE) “inactive; negative”; (Test System: AMES SALMONELLA TYPHIMURIUM, Strain/Indicator: TA100, Metabolic Activation: NONE, Method: STANDARD PLATE) “inactive; negative”; (Test System: AMES SALMONELLA TYPHIMURIUM, Strain/Indicator: TA100, Metabolic Activation: S-9, Method: STANDARD PLATE) “inactive; negative”.

Turning to `OCCCCCl`, the mutagenic call runs as follows: under setting [1], “inactive; negative”; under setting [2], “active; positive”; (Test System: AMES SALMONELLA TYPHIMURIUM, Strain/Indicator: TA100, Metabolic Activation: RAT, LIVER, S-9, KANECHLOR 500, Method: PREINCUBATION) “active; positive”.

Turning to `CC(C)[N+](C)(CCOC(=O)C1c2ccccc2Oc2ccccc21)C(C)C`, the mutagenic call (End Point: IN VITRO CHROMOSOMAL ABERRATIONS, Test System: CHINESE HAMSTER OVARY CELLS, Metabolic Activation: NONE) is “inactive; negative”; the mutagenic call (End Point: IN VITRO CHROMOSOMAL ABERRATIONS, Test System: CHINESE HAMSTER OVARY CELLS, Metabolic Activation: RAT, LIVER, S-9, AROCLOR 1254) is “inactive; negative”; the mutagenic call (Test System: AMES SALMONELLA TYPHIMURIUM, Strain/Indicator: TA97, Metabolic Activation: HAMSTER, LIVER, S-9, AROCLOR 1254 (10 OR 30%), Method: PREINCUBATION) is “inactive; negative”; the mutagenic call (Test System: AMES SALMONELLA TYPHIMURIUM, Strain/Indicator: TA97, Metabolic Activation: NONE, Method: PREINCUBATION) was “inactive; negative”; the mutagenic call (Test System: AMES SALMONELLA TYPHIMURIUM, Strain/Indicator: TA97, Metabolic Activation: RAT, LIVER, S-9, AROCLOR 1254 (10%), Method: PREINCUBATION) was “inactive; negative”; the mutagenic call (Test System: AMES SALMONELLA TYPHIMURIUM, Strain/Indicator: TA97, Metabolic Activation: RAT, LIVER, S-9, AROCLOR 1254 (30%), Method: PREINCUBATION) was “inactive; negative”. Also, the mutagenic call (Test System: AMES SALMONELLA TYPHIMURIUM, Strain/Indicator: TA98, Metabolic Activation: HAMSTER, LIVER, S-9, AROCLOR 1254 (10%), Method: PREINCUBATION) was “inactive; negative”; the mutagenic call (Test System: AMES SALMONELLA TYPHIMURIUM, Strain/Indicator: TA98, Metabolic Activation: HAMSTER, LIVER, S-9, AROCLOR 1254 (30%), Method: PREINCUBATION) is “inactive; negative”; the mutagenic call under setting [1] was “inactive; negative”; the mutagenic call (Test System: AMES SALMONELLA TYPHIMURIUM, Strain/Indicator: TA98, Metabolic Activation: RAT, LIVER, S-9, AROCLOR 1254 (10%), Method: PREINCUBATION) is “inactive; negative”; the mutagenic call (Test System: AMES SALMONELLA TYPHIMURIUM, Strain/Indicator: TA98, Metabolic Activation: RAT, LIVER, S-9, AROCLOR 1254 (30%), Method: PREINCUBATION) is “inactive; negative”; the mutagenic call (Test System: AMES SALMONELLA TYPHIMURIUM, Strain/Indicator: TA100, Metabolic Activation: HAMSTER, LIVER, S-9, AROCLOR 1254 (10%), Method: PREINCUBATION) is “inactive; negative”. Besides, the mutagenic call (Test System: AMES SALMONELLA TYPHIMURIUM, Strain/Indicator: TA100, Metabolic Activation: HAMSTER, LIVER, S-9, AROCLOR 1254 (30%), Method: PREINCUBATION) was “inactive; negative”; the mutagenic call under setting [2] was “inactive; negative”; the mutagenic call (Test System: AMES SALMONELLA TYPHIMURIUM, Strain/Indicator: TA100, Metabolic Activation: RAT, LIVER, S-9, AROCLOR 1254 (10%), Method: PREINCUBATION) was “inactive; negative”; the mutagenic call (Test System: AMES SALMONELLA TYPHIMURIUM, Strain/Indicator: TA100, Metabolic Activation: RAT, LIVER, S-9, AROCLOR 1254 (30%), Method: PREINCUBATION) is “inactive; negative”; the mutagenic call (Test System: AMES SALMONELLA TYPHIMURIUM, Strain/Indicator: TA1535, Metabolic Activation: HAMSTER, LIVER, S-9, AROCLOR 1254 (10%), Method: PREINCUBATION) is “inactive; negative”; the mutagenic call (Test System: AMES SALMONELLA TYPHIMURIUM, Strain/Indicator: TA1535, Metabolic Activation: HAMSTER, LIVER, S-9, AROCLOR 1254 (30%), Method: PREINCUBATION) is “inactive; negative”. The mutagenic call by setting is: (Test System: AMES SALMONELLA TYPHIMURIUM, Strain/Indicator: TA1535, Metabolic Activation: NONE, Method: PREINCUBATION) “inactive; negative”; (Test System: AMES SALMONELLA TYPHIMURIUM, Strain/Indicator: TA1535, Metabolic Activation: RAT, LIVER, S-9, AROCLOR 1254 (10%), Method: PREINCUBATION) “inactive; negative”; (Test System: AMES SALMONELLA TYPHIMURIUM, Strain/Indicator: TA1535, Metabolic Activation: RAT, LIVER, S-9, AROCLOR 1254 (30%), Method: PREINCUBATION) “inactive; negative”; (Test System: AMES SALMONELLA TYPHIMURIUM, Strain/Indicator: TA1537, Metabolic Activation: HAMSTER, LIVER, S-9, AROCLOR 1254 (10%), Method: PREINCUBATION) “inactive; negative”; (Test System: AMES SALMONELLA TYPHIMURIUM, Strain/Indicator: TA1537, Metabolic Activation: NONE, Method: PREINCUBATION) “inactive; negative”; (Test System: AMES SALMONELLA TYPHIMURIUM, Strain/Indicator: TA1537, Metabolic Activation: RAT, LIVER, S-9, AROCLOR 1254 (10%), Method: PREINCUBATION) “inactive; negative”.

These data come from PubChem BioAssay AID1259407 (Chemical Carcinogenesis Research Information System (CCRIS), 2018).
